The source made the active and inactive calls.
Tests used:
[1] = target: T1, Corticotropin-releasing factor receptor 2/Corticotropin-releasing factor-binding protein (Homo sapiens, UniProt P24387+Q13324); experiment: Dose Response confirmation of uHTS hits for small molecule antagonists of the CRF-binding protein and CRF-R2 receptor complex.; assay type: functional; conditions: read-out: IC50_Mean
T1 sequence (Q13324 whole entry): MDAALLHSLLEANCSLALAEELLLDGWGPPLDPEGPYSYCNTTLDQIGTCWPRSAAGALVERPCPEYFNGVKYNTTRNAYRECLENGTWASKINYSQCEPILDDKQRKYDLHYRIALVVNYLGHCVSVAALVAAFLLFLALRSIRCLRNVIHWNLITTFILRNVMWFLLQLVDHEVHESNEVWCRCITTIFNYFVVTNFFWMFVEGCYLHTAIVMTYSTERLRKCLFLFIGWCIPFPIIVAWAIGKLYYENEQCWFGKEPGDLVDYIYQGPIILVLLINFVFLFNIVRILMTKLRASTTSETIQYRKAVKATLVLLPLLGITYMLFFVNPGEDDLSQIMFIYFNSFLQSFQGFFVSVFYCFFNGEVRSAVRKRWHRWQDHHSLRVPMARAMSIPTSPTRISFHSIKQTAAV
T1 sequence (P24387 whole entry): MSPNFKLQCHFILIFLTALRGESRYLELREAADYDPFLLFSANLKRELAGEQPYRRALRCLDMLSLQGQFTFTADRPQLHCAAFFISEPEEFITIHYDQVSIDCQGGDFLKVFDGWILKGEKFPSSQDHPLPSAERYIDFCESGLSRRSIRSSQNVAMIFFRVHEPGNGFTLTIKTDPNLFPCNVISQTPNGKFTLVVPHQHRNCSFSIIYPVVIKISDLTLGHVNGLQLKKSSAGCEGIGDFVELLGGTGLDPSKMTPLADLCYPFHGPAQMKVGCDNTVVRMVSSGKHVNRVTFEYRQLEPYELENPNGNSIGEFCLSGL

[2] = target: T1, Corticotropin-releasing factor receptor 2/Corticotropin-releasing factor-binding protein; experiment: activators of CRF receptor 2 with binding protein – uHTS hits, confirmation (AID 602473); assay type: functional; conditions: read-out: EC50_Mean
[3] = test system: Escherichia coli; experiment: microbe, parasite or virus in culture
[4] = test system: BJ; experiment: cytotoxicity toward BJ-TERT fibroblasts, dose response, cell-based, RAS-independent, luminescence (AID 1933); assay type: functional; conditions: Homo sapiens
[5] = target: T2, Heat shock factor protein 1 (Mus musculus, UniProt P38532); experiment: inhibition of MG132-induced HSE-luciferase signal, confirmation, cell-based, NIH3T3, luminescence, dose retest (AID 2382); assay type: functional;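 further: NIH3T3 fibroblasts with HSF1-driven luciferase reporter stressed by proteasome inhibitor MG132; luminescence from HSF1-driven luciferase expression after 8 hours of MG132 stress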
T2 sequence (P38532 whole entry): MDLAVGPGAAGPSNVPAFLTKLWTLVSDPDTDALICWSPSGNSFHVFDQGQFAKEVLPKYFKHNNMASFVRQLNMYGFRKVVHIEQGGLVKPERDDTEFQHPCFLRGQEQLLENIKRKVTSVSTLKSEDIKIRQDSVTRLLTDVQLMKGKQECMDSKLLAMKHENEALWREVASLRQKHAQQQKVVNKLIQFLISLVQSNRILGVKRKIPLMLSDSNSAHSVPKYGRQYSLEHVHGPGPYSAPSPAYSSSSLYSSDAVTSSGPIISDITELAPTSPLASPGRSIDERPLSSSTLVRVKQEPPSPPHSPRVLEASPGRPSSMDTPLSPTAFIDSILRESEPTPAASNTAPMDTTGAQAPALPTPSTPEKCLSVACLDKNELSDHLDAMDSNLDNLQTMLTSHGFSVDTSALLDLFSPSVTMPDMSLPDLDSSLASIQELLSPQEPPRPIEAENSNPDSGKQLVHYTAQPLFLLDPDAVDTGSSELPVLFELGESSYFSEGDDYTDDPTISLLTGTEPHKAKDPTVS

[6] = test system: BJ; experiment: cells; assay type: functional, cell-based; conditions: Homo sapiens
[7] = growth suppression of PTEN-null colon cells, dose response, cell-based, HCT116 PTEN knockout (AID 1047); assay type: functional;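 further: HCT116 colon tumor cells with PTEN knocked out; cells exposed to compound for 60 hours before readout; potency for loss of cell viability measured by luminescence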
[8] = growth suppression of beta-catenin-knockout colon cells, dose response, cell-based, HCT116, human colon tumor (AID 1045); assay type: functional;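 further: HCT116 colon tumor cells with beta catenin knocked out; cells exposed to compound for 60 hours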
[9] = test system: BJ; experiment: cytotoxicity toward BJ-TERT-LT-ST fibroblasts, dose response, cell-based, RAS-independent, luminescence (AID 1935); assay type: functional; conditions: Homo sapiens;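 further: BJ fibroblasts immortalized with TERT plus LT and ST oncogenes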
[10] = cytotoxicity toward DRD oncogenic fibroblasts, dose response, cell-based, non-viral oncogenic, luminescence (AID 1934); assay type: functional; conditions: Homo sapiens
[11] = target: G-protein coupled receptor 55 (Homo sapiens, UniProt Q9Y2T6); experiment: GPR55 agonists via beta-arrestin recruitment, primary screen, imaging, U2OS cells, beta-arrestin-GFP redistribution (AID 1961); assay type: functional
[12] = Luminescence Cell-Based Dose Retest to Confirm Inhibitors of Cancer Stem Cells. [Related pubchem assays (depositor defined):AID2717, AID2721]; assay type: functional; conditions: Homo sapiens
[13] = test system: BJ; experiment: cytotoxicity toward Ras-transformed BJeLR fibroblasts, dose response, cell-based, alamar blue fluorescence, cherrypicked samples (AID 2631); assay type: functional; conditions: Homo sapiens;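 further: confirmatory dose-response assay in RAS-dependent BJ fibroblasts engineered with TERT, LT and ST, with cytotoxicity read by fluorescence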
[14] = test system: INS1; experiment: beta cell apoptosis inhibitors, cytokine rescue, dose response, luminescence, retest (AID 449756); assay type: functional, cell-based; conditions: Rattus norvegicus;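 further: cell death triggered by IL-1 beta plus TNF-alpha plus IFN-gamma mixture; protective hits raise ATP signal compared with cytokine alone wells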
[15] = Shn3 3'UTR reporter inhibitors, dose response, cell-based, Clone20 osteoblasts, firefly luciferase, cherry-picked (AID 624132); assay type: functional;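 further: firefly luciferase luminescence from reporter carrying the Shn3 3'UTR in osteoblasts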
[16] = control 3'UTR Renilla luciferase suppression, dose response, counter-screen for Shn3 inhibitor project, cell-based, Clone20-Shn3RL, cherry-picked (AID 624133); assay type: functional
[17] = test system: HEK293; experiment: cells; conditions: Homo sapiens
[18] = test system: HEK293; experiment: cells; conditions: Homo sapiens; remark: listed apart in the source
[19] = inhibitors of HIV Env-driven cell fusion, dose response, cherry-pick (AID 652057); assay type: functional, cell-based
[20] = CEM21 lymphoblast cell cytotoxicity, dose response, cytotoxicity control for viral fusion inhibitor project, CellTiter-Glo luminescence, cherry-picked (AID 652042); assay type: functional, cell-based;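 further: potency for signal decrease meaning cytotoxicity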
[21] = ZM109 Env clade C HIV-1 fusion inhibitors, dose response, HeLa effector, CEM target cells, luciferase, cherry-pick (AID 652058); assay type: functional, cell-based
[22] = off-target signal loss in HeLa-CEM21 co-culture – HeLa F-luc CTL cells, cherry-picked, counter-screen for HIV-1 Env fusion inhibitor project, dose response (AID 652040); assay type: functional, cell-based;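 further: potency for signal decrease marking cytotoxic or nonspecific inhibition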
[23] = inhibitors of clade B AD8 Env fusion, dose response, cell-based, cherry-pick (AID 652062); assay type: functional;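 further: luciferase signal from cell-cell fusion driven by HIV-1 clade B AD8 Env; potency is for inhibitors of fusion seen as a drop in luminescence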
[24] = test system: Streptococcus sp. 'group A'; experiment: growth inhibition of control SK(-) GAS strain, dose response, counter-screen for streptokinase expression inhibitor project, luminescence, kanamycin, BacTiterGlo, confirmation (AID 1900); assay type: functional, organism-based
[25] = test system: Streptococcus; experiment: Group A Streptococcus viability loss, dose response, counter-screen for streptokinase expression inhibitor project, luminescence, BacTiterGlo (AID 1915); assay type: functional, organism-based;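 further: potency for reduction of bacterial viability or growth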
[26] = target: Nonstructural protein 1 (Influenza A virus, UniProt Q194T2); assay type: functional, Influenza A virus (A/California/07/2009(H1N1))
[27] = test system: Vero; experiment: cells; assay type: functional; conditions: Chlorocebus sabaeus
[28] = test system: HEK293; experiment: inhibitors of LMP1-driven NF-kB reporter, dose response, cell-based, HEK293, luciferase, cherry-pick (AID 588343); assay type: functional; conditions: Homo sapiens
[29] = target: Latent membrane protein 1 (Human herpesvirus 4 (strain B95-8), UniProt P03230); experiment: TES1-eGFP NF-kB reporter inhibition versus Tet-On dsRED, dose response, selectivity assay for LMP1 NF-kB inhibitor project, imaging, HEK293T, dual-color eGFP/dsRED, cherry-picks (AID 588398); assay type: functional, cell-based
[30] = target: T3, ORF 73 (Human herpesvirus 8, UniProt O40947); experiment: inhibitors of C-LANA binding to LBS DNA, dose response, biochemical, fluorescence polarization, cherry-picked samples (AID 504725); design: species or system Human gammaherpesvirus 8;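 further: fluorescence polarization of a labeled DNA duplex reporting LANA DNA binding; potency is for inhibitors that block LANA binding to the DNA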
T3 sequence (O40947 whole entry): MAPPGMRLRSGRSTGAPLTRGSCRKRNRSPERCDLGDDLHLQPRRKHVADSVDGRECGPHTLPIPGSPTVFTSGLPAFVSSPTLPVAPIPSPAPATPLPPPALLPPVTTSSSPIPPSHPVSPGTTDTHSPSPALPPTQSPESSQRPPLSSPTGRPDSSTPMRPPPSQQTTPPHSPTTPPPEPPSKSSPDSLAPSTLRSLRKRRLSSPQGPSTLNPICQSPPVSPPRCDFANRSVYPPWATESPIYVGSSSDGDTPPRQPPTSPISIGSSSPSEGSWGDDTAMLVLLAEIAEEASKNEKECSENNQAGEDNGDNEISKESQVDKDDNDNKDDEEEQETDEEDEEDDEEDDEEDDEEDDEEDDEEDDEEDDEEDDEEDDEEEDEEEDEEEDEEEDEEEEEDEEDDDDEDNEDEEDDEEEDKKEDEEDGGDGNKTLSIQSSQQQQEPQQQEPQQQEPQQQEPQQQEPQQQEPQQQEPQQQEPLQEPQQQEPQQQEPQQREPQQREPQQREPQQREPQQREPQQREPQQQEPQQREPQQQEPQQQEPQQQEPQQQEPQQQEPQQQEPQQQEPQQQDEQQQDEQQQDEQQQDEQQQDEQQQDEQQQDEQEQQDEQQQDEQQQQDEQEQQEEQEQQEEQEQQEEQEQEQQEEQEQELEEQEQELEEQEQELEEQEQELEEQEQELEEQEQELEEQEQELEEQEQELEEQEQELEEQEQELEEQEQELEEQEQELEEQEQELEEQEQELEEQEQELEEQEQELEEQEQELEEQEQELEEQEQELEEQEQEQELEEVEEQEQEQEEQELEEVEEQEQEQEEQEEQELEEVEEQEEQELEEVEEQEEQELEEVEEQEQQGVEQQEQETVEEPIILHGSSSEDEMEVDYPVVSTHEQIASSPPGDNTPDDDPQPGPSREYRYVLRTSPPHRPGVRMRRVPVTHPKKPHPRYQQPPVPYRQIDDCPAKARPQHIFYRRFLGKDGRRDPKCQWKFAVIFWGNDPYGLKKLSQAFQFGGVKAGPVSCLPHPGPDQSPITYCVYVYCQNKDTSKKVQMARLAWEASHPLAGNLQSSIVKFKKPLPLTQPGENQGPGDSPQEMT

[31] = target: Keap1/Nrf2 (Homo sapiens, UniProt Q14145); experiment: Keap1-Nrf2 protein-protein interaction inhibitors, dose response, biochemical, fluorescence polarization, cherry-picked samples (AID 588683)
[32] = NIH-3T3 fibroblast cytotoxicity, dose response, cytotoxicity control, cell-based, fluorescence, Alamar Blue, secondary assay (AID 2327); assay type: functional;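 further: NIH-3T3 mouse fibroblasts cultured with fluconazole at 8 µg/mL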
[33] = C. albicans growth with fluconazole, confirmation, fluorescence, retest (AID 2467); assay type: functional, cell-based
[34] = target: Serine/threonine-protein phosphatase (Candida dubliniensis (strain CD36 / CBS 7987 / NCPF 3949 / NRRLY-17841) (Yeast), UniProt B9W6M3); experiment: calcineurin pathway inhibitors in yeast reporter, dose response, S. cerevisiae, CDRE-lacZ, luminescence, secondary (AID 2388); assay type: functional, cell-based;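 further: yeast reporter cells carrying a calcineurin-responsive lacZ construct stimulated with calcium chloride; luminescent beta-galactosidase reporter signal in whole cells rather than isolated phosphatase activity; potency for inhibition where a drop in reporter signal means calcineurin blockade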
[35] = target: ATP-dependent molecular chaperone HSP82 (Candida albicans (strain WO-1) (Yeast), UniProt C4YTQ8); experiment: loss of DOC-induced GRE-beta-galactosidase reporter signal, dose response, Hsp90 inhibitor project, S. cerevisiae, luminescence (AID 2400); assay type: functional, cell-based;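 further: beta-galactosidase luminescence from glucocorticoid response element reporter as proxy for Hsp90 function; inhibitor potency where signal loss means Hsp90 inhibition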
Sequence of ATP-dependent molecular chaperone HSP82 (C4YTQ8 whole entry): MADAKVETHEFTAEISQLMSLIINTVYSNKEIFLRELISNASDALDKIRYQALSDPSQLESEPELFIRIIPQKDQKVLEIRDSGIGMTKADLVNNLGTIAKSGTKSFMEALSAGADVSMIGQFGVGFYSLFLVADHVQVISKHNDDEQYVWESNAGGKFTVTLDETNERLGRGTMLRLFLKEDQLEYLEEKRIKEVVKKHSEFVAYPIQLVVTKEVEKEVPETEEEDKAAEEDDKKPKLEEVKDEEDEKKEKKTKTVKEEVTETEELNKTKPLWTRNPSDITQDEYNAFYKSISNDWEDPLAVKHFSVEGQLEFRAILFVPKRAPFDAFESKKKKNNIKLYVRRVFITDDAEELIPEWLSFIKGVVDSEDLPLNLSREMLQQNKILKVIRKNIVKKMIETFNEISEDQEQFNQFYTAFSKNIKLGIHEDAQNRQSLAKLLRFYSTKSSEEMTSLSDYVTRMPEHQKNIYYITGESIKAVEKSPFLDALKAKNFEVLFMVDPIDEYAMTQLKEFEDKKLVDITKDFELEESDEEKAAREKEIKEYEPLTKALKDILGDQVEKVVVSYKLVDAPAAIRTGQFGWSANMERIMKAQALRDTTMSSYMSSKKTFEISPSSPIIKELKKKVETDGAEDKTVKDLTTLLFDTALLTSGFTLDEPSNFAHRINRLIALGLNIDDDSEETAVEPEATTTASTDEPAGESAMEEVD

Sequence of Serine/threonine-protein phosphatase (B9W6M3 whole entry): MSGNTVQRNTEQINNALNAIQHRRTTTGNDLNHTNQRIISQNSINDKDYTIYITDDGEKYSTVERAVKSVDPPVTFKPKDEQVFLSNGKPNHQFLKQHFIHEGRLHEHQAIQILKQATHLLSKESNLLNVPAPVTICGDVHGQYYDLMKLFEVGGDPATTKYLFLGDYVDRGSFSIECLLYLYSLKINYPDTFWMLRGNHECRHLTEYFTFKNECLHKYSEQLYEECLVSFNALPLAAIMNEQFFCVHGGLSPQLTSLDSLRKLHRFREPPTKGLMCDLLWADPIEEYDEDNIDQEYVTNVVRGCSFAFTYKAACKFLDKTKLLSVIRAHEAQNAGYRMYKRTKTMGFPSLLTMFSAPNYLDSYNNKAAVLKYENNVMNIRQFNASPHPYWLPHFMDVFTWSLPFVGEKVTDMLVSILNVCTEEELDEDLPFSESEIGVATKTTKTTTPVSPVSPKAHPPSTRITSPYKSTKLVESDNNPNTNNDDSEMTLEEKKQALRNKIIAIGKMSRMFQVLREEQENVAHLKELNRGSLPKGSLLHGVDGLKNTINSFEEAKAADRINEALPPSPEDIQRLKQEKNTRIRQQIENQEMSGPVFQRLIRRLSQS
Sequence of Nonstructural protein 1 (Q194T2 whole entry): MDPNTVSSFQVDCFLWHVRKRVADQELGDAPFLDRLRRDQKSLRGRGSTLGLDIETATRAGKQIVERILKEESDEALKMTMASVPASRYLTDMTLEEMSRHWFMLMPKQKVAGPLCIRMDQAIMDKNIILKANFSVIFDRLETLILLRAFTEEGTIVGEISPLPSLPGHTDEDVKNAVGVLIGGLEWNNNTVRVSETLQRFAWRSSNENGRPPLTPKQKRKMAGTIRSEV
Sequence of Keap1/Nrf2 (Q16236 whole entry): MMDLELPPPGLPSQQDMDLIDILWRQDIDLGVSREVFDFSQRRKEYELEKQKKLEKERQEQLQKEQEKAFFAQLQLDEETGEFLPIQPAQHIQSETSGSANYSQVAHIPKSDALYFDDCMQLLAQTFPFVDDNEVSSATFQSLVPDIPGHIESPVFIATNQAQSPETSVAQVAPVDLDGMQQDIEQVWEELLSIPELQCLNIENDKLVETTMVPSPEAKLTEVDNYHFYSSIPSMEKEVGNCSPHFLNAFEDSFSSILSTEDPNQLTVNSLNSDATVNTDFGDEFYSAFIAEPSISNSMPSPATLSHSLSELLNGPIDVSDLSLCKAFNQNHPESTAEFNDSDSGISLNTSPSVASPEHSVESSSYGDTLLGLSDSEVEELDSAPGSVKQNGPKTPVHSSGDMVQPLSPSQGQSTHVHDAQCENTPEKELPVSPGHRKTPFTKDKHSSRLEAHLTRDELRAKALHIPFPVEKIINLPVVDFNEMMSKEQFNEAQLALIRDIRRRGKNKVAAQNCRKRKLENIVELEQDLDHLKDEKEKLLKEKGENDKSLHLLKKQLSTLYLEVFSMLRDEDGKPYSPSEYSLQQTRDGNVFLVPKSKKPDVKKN
Sequence of Keap1/Nrf2 (Q14145 whole entry): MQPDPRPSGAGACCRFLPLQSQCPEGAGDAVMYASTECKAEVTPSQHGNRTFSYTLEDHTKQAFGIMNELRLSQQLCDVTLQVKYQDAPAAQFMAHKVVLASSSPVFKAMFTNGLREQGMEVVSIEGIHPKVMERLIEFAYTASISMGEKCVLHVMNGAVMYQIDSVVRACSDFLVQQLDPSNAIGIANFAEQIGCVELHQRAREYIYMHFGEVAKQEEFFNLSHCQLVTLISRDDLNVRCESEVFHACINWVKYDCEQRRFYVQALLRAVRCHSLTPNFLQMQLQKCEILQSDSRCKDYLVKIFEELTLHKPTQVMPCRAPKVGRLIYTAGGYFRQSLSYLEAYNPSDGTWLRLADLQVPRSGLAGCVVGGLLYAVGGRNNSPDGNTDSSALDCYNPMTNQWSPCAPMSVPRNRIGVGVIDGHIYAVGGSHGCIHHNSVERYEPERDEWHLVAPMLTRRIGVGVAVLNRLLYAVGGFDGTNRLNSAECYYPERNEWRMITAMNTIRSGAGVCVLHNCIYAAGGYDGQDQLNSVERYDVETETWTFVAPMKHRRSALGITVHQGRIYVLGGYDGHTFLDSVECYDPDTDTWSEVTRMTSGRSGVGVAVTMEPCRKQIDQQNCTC
Sequence of Latent membrane protein 1 (P03230 whole entry): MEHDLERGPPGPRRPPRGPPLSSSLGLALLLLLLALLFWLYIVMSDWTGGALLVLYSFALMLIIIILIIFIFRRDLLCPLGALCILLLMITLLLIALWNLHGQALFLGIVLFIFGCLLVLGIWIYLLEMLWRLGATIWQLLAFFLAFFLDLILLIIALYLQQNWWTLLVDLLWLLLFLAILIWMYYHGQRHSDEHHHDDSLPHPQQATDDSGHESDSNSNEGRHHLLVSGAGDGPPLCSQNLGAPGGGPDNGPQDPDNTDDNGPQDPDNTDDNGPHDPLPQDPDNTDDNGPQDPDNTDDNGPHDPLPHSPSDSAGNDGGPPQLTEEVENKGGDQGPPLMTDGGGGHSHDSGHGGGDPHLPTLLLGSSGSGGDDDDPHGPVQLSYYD
Sequence of G-protein coupled receptor 55 (Q9Y2T6 whole entry): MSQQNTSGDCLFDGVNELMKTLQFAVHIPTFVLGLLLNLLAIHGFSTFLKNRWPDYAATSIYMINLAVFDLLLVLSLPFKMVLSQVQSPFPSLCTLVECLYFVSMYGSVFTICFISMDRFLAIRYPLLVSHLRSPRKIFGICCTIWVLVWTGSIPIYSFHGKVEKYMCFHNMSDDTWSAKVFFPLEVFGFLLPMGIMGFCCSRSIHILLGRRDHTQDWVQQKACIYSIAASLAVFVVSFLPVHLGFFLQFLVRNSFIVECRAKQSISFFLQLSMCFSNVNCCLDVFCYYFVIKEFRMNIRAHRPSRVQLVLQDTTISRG

COC(=O)c1ccc(OC(=O)c2nn(C)cc2Cl)c(OC)c1
IC50 [1]: > 47.1 µM (inactive) | EC50 [2]: > 53 µM (inactive) | AC50 [3]: 42.7 µM (active)

CCOC(=O)/C(=C\c1ccc([N+](=O)[O-])cc1)C(=O)c1cc(C(C)=O)c(Nc2ccccc2)s1
EC50 [4]: 2.12 µM (active) | EC50 [5]: 3.16 µM (inconclusive) | EC50 [6]: 3.1 µM (active) | EC50 [7]: 4.17 µM (active) | EC50 [8]: 3.81 µM (active) | EC50 [9]: 2.18 µM (inconclusive) | EC50 [10]: 3.32 µM (active) | EC50 [11]: > 32 µM (inactive) | AC50 [12]: 0.685 µM (active) | EC50 [13]: 1.49 µM (active) | AC50 [14]: 1.94 µM (active) | AC50 [15]: 2.47 µM (active) | AC50 [16]: 6.21 µM (active)

O=C1CN(c2nc(-c3cccnc3)nc3sc4c(c23)CCCC4)CCN1
EC50 [17]: > 59.6 µM (inactive) | EC50 [18]: > 59.6 µM (inactive)

CC1CCc2c(N3CCC(O)CC3)c(F)cc3c(=O)c(C(=O)O)cn1c23 (configuration not stated) [NADIFLOXACIN]
AC50 [3]: 1.3 µM (active)

COC(=O)c1c(NC(=O)CN2CCC3(O)CCCCC3C2c2cc(OC)ccc2OC)sc(C)c1C (configuration not stated)
AC50 [19]: 0.472 µM (active) | AC50 [20]: 48.1 µM (active) | AC50 [21]: 1.15 µM (active) | AC50 [22]: 1.21 µM (active) | AC50 [23]: 3.62 µM (active) | EC50 [17]: > 59.7 µM (inactive) | EC50 [18]: > 59.7 µM (inactive)

C/C(=N\NC(=O)c1cccc2ccccc12)c1ccccn1
EC50 [24]: 2.88 µM (active) | EC50 [4]: 5.73 µM (active) | EC50 [6]: 3.45 µM (active) | EC50 [9]: 3.87 µM (active) | EC50 [10]: 2.4 µM (active) | EC50 [25]: 6.39 µM (active) | IC50 [26]: 7.25 µM (active) | EC50 [13]: 0.497 µM (inconclusive) | CC50 [27]: 3.56 µM (active)

O=C(CF)N(O)c1ccc(C=Cc2ccccc2)cc1
AC50 [28]: 0.732 µM (active) | AC50 [29]: 0.734 µM (active)

O=C(c1ccccc1)c1ccc(O)cc1O [2,4-DIHYDROXYBENZOPHENONE]
AC50 [30]: 5.38 µM (active) | AC50 [31]: 11.1 µM (active)

CCc1cc(C(=O)NN=C(S)Nc2cc(C)ccc2C)cs1
EC50 [32]: > 150 µM (inactive) | EC50 [33]: 0.382 µM (active) | EC50 [34]: > 180 µM (inactive) | EC50 [35]: > 150 µM (inactive)

CCCCOc1cccc(C2C(C(=O)c3ccc(C)o3)=C(O)C(=O)N2Cc2ccco2)c1 (configuration not stated)
EC50 [32]: > 150 µM (inactive) | EC50 [33]: 0.398 µM (active) | EC50 [34]: > 180 µM (inactive) | EC50 [35]: 16.6 µM (active)

— ChEMBL document CHEMBL1201862, “PubChem BioAssay data set” (2004)
